The text below walks through data of patent US20240398828A1, “HETERO-ATOM CONTAINING COMPOUNDS AND USES THEREOF” (Kumquat Biosciences Inc., priority 2021, published 2024).

The target in experiment [1] is T1, PTPN2 (i.e., TC-PTP) (Homo sapiens, UniProt P17706).
T1 sequence (P17706 1-415): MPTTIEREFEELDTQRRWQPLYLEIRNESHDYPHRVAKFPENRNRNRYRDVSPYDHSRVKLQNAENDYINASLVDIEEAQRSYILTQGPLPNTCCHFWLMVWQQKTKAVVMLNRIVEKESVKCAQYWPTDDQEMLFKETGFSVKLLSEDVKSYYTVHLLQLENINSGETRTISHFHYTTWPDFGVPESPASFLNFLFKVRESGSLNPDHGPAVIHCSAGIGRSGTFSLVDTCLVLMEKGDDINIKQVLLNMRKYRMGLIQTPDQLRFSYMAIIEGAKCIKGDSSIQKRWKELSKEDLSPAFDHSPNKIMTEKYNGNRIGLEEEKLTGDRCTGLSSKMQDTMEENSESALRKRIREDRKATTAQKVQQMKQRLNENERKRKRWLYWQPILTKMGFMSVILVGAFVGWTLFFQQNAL
Description: Phosphatase activity assay (DiFMUP substrate), PTPN2. It is filed as biochemical. The settings on record: compounds binned ≤1 uM or >1 uM. In a few lines:
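Enzyme (e.g. PTPN2 0.025 ng/ul) mixed about 2 min with compound at 10 serial concentrations in 50 mM HEPES pH 7.5, 150 mM NaCl, 0.5 mM EDTA, 1 mM DTT, 0.001% Tween-20 at room temperature. DiFMUP added at each enzyme's Km (about 45 μM for PTPN2). DiFMU fluorescence (ex 360/em 450 nm) followed 15-30 min; IC50 from 4-parameter fit of rates.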

For experiment [2], the target named is T2, PTPN1 (i.e., PTP1B) (Homo sapiens, UniProt P18031).
T2 sequence (P18031 1-435): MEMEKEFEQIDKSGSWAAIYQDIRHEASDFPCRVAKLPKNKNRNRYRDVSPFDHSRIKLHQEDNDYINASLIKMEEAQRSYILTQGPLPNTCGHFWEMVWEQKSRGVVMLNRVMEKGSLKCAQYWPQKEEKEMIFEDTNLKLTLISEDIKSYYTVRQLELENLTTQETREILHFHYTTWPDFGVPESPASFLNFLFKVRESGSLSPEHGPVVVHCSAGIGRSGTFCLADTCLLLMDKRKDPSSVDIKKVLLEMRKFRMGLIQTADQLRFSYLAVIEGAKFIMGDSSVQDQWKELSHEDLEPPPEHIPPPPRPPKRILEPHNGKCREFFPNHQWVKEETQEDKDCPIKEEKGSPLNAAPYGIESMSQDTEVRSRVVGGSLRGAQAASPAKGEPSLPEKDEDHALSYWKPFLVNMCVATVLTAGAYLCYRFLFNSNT
Description: Phosphatase activity assay (DiFMUP substrate), PTP1B. It is filed as biochemical. The settings on record: compounds binned ≤1 uM or >1 uM. In a few lines: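 RT, HEPES pH 7.5 buffer with DTT/Tween-20. 10-point inhibitor series premixed ~2 min with enzyme (PTPN2 0.025 ng/ul). Start with DiFMUP at enzyme Km (~45 μM for PTPN2). Read DiFMU ex360/em450 continuously 15–30 min; initial rate vs concentration, 4-parameter fit → IC50.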

With `O=C1CN(c2c(O)ccc(-c3cnn(Cc4cccc(F)c4)c3)c2F)S(=O)(=O)N1` [Compound 222, 5-(2-fluoro-3-(1-(3-fluorobenzyl)-1H-pyrazol-4-yl)-6-hydroxyphenyl)-1,2,5-thiadiazolidin-3-one 1,1-dioxide], the IC50 in experiment [1] and in experiment [2] was at most 1 µM throughout.

In the case of `O=C1CN(c2c(O)ccc(-c3cnn(Cc4cccc(Cl)c4)c3)c2F)S(=O)(=O)N1` [Compound 223, 5-(3-(1-(3-chlorobenzyl)-1H-pyrazol-4-yl)-2-fluoro-6-hydroxyphenyl)-1,2,5-thiadiazolidin-3-one 1,1-dioxide], the IC50 in experiment [1] and in experiment [2] was at most 1 µM throughout.

Turning to `N#Cc1ccc(Cn2cc(-c3ccc(O)c(N4CC(=O)NS4(=O)=O)c3F)cn2)cc1` [Compound 224, 4-((4-(3-(1,1-dioxido-4-oxo-1,2,5-thiadiazolidin-2-yl)-2-fluoro-4-hydroxyphenyl)-1H-pyrazol-1-yl)methyl)benzonitrile], the IC50 in experiment [1] and in experiment [2] was at most 1 µM in each case.

Consider `CN1CCC(Nc2cccc(-c3ccc(O)c(N4CC(=O)NS4(=O)=O)c3F)c2)CC1` [Compound 225, 5-(2-fluoro-4-hydroxy-3′-((1-methylpiperidin-4-yl)amino)-[1,1′-biphenyl]-3-yl)-1,2,5-thiadiazolidin-3-one 1,1-dioxide], for which the 50% inhibitory concentration (IC50) in experiment [1] and in experiment [2] was at most 1 µM throughout.

On to `CCOc1ccc(-c2ccc(O)c(N3CC(=O)NS3(=O)=O)c2F)cn1` [Compound 226, 5-(3-(6-ethoxypyridin-3-yl)-2-fluoro-6-hydroxyphenyl)-1,2,5-thiadiazolidin-3-one 1,1-dioxide], for which the IC50 in experiment [1] and in experiment [2] was at most 1 µM throughout.

`Cn1cc(-c2ccc(O)c(N3CC(=O)NS3(=O)=O)c2F)cn1` [Compound 227, 5-(2-fluoro-6-hydroxy-3-(1-methyl-1H-pyrazol-4-yl)phenyl)-1,2,5-thiadiazolidin-3-one 1,1-dioxide]: the IC50 in experiment [1] and in experiment [2] was at most 1 µM each time.

Take `O=C1CN(c2c(O)ccc(-c3cnn(CCC4CCOC4)c3)c2F)S(=O)(=O)N1` (stereo not drawn) [Compound 228, 5-(2-fluoro-6-hydroxy-3-(1-(2-(tetrahydrofuran-3-yl)ethyl)-1H-pyrazol-4-yl)phenyl)-1,2,5-thiadiazolidin-3-one 1,1-dioxide]: the concentration for half-maximal inhibition (IC50) in experiment [1] and in experiment [2] was at most 1 µM in each case.

As to `NC(=O)Cn1nc(-c2ccc(O)c(N3CC(=O)NS3(=O)=O)c2F)cc1C1CC1` [Compound 229, 2-(5-cyclopropyl-3-(3-(1,1-dioxido-4-oxo-1,2,5-thiadiazolidin-2-yl)-2-fluoro-4-hydroxyphenyl)-1H-pyrazol-1-yl)acetamide], the concentration for half-maximal inhibition (IC50) in experiment [1] and in experiment [2] was at most 1 µM each time.

As for `O=C1CN(c2c(O)ccc(-c3cc(C(=O)N4CCC4)n[nH]3)c2F)S(=O)(=O)N1` [Compound 230, 5-(3-(3-(azetidine-1-carbonyl)-1H-pyrazol-5-yl)-2-fluoro-6-hydroxyphenyl)-1,2,5-thiadiazolidin-3-one 1,1-dioxide], the half-inhibitory concentration (IC50) in experiment [1] and in experiment [2] was at most 1 µM in each case.

As for `O=C1CN(c2c(O)ccc(-c3ccc(NS(=O)(=O)CC4CC4)cc3)c2F)S(=O)(=O)N1` [Compound 231, 1-cyclopropyl-N-(3′-(1,1-dioxido-4-oxo-1,2,5-thiadiazolidin-2-yl)-2′-fluoro-4′-hydroxy-[1,1′-biphenyl]-4-yl)methanesulfonamide], the IC50 in experiment [1] and in experiment [2] was at most 1 µM each time.

`CC(=O)N(C)C1CCC=C(c2ccc(O)c(N3CC(=O)NS3(=O)=O)c2F)C1` (stereo not drawn) [Compound 232, N-(3′-(1,1-dioxido-4-oxo-1,2,5-thiadiazolidin-2-yl)-2′-fluoro-4′-hydroxy-2,3,4,5-tetrahydro-[1,1′-biphenyl]-3-yl)-N-methylacetamide]: the IC50 in experiment [1] and in experiment [2] was at most 1 µM each time.

On to `O=C1CN(c2c(O)ccc(-c3cn(CC4CC4)nc3F)c2F)S(=O)(=O)N1` [Compound 233, 5-(3-(1-(cyclopropylmethyl)-3-fluoro-1H-pyrazol-4-yl)-2-fluoro-6-hydroxyphenyl)-1,2,5-thiadiazolidin-3-one 1,1-dioxide], for which the IC50 in experiment [1] and in experiment [2] was at most 1 µM throughout.

As to `O=C1CN(c2c(O)ccc(-c3cnc(NS(=O)(=O)C4CC4)nc3)c2F)S(=O)(=O)N1` [Compound 234, N-(5-(3-(1,1-dioxido-4-oxo-1,2,5-thiadiazolidin-2-yl)-2-fluoro-4-hydroxyphenyl)pyrimidin-2-yl)cyclopropanesulfonamide], the IC50 in experiment [1] and in experiment [2] was at most 1 µM each time.

For `O=C1CN(c2c(O)ccc(-c3nnc(C4CC4)[nH]3)c2F)S(=O)(=O)N1` [Compound 235, 5-(3-(5-cyclopropyl-4H-1,2,4-triazol-3-yl)-2-fluoro-6-hydroxyphenyl)-1,2,5-thiadiazolidin-3-one 1,1-dioxide], the concentration for half-maximal inhibition (IC50) in experiment [1] and in experiment [2] was at most 1 µM in each case.

As for `CS(=O)(=O)Nc1ccc(-c2ccc(O)c(N3CC(=O)NS3(=O)=O)c2F)cc1` [Compound 236, N-(3′-(1,1-dioxido-4-oxo-1,2,5-thiadiazolidin-2-yl)-2′-fluoro-4′-hydroxy-[1,1′-biphenyl]-4-yl)methanesulfonamide], the concentration for half-maximal inhibition (IC50) in experiment [1] and in experiment [2] was at most 1 µM in each case.

As for `Cn1cnc(-c2ccc(O)c(N3CC(=O)NS3(=O)=O)c2F)n1` [Compound 237, 5-(2-fluoro-6-hydroxy-3-(1-methyl-1H-1,2,4-triazol-3-yl)phenyl)-1,2,5-thiadiazolidin-3-one 1,1-dioxide], the IC50 in experiment [1] and in experiment [2] was at most 1 µM in each case.

For the compound `O=C1CN(c2c(O)ccc(C3=CCN(S(=O)(=O)C4CC4)C3)c2F)S(=O)(=O)N1` [Compound 238, 5-(3-(1-(cyclopropylsulfonyl)-2,5-dihydro-1H-pyrrol-3-yl)-2-fluoro-6-hydroxyphenyl)-1,2,5-thiadiazolidin-3-one 1,1-dioxide], the IC50 in experiment [1] and in experiment [2] was at most 1 µM throughout.

Consider `O=C1CN(c2c(O)ccc(-c3cc(C4CC4)nn3CC3CC3)c2F)S(=O)(=O)N1` [Compound 239, 5-(3-(3-cyclopropyl-1-(cyclopropylmethyl)-1H-pyrazol-5-yl)-2-fluoro-6-hydroxyphenyl)-1,2,5-thiadiazolidin-3-one 1,1-dioxide], for which the IC50 in experiment [1] and in experiment [2] was at most 1 µM throughout.

Turning to `O=C1CN(c2c(O)ccc(-c3ccn(CC4CC4)c3)c2F)S(=O)(=O)N1` [Compound 240, 5-(3-(1-(cyclopropylmethyl)-1H-pyrrol-3-yl)-2-fluoro-6-hydroxyphenyl)-1,2,5-thiadiazolidin-3-one 1,1-dioxide], the half-inhibitory concentration (IC50) in experiment [1] and in experiment [2] was at most 1 µM throughout.

For `O=C1CN(c2c(O)ccc(-c3cn(C4CCC4)cn3)c2F)S(=O)(=O)N1` [Compound 241, 5-(3-(1-cyclobutyl-1H-imidazol-4-yl)-2-fluoro-6-hydroxyphenyl)-1,2,5-thiadiazolidin-3-one 1,1-dioxide], the IC50 in experiment [1] and in experiment [2] was at most 1 µM throughout.

Consider `O=C1CN(c2c(O)ccc(-c3cnn(C4CC5(CCC5)C4)c3)c2F)S(=O)(=O)N1` [Compound 242, 5-(2-fluoro-6-hydroxy-3-(1-(spiro[3.3]heptan-2-yl)-1H-pyrazol-4-yl)phenyl)-1,2,5-thiadiazolidin-3-one 1,1-dioxide], for which the 50% inhibitory concentration (IC50) in experiment [1] and in experiment [2] was at most 1 µM throughout.

Consider `COCCCc1cc(-c2ccc(O)c(N3CC(=O)NS3(=O)=O)c2F)[nH]n1` [Compound 243, 5-(2-fluoro-6-hydroxy-3-(3-(3-methoxypropyl)-1H-pyrazol-5-yl)phenyl)-1,2,5-thiadiazolidin-3-one 1,1-dioxide], for which the 50% inhibitory concentration (IC50) in experiment [1] and in experiment [2] was at most 1 µM throughout.

As to `O=C1C=C(c2c(O)ccc(-c3cn(C4CC4)cn3)c2F)S(=O)(=O)N1` [Compound 244, 5-(3-(1-cyclopropyl-1H-imidazol-4-yl)-2-fluoro-6-hydroxyphenyl)isothiazol-3(2H)-one 1,1-dioxide], the half-maximal inhibitory concentration (IC50) in experiment [1] and in experiment [2] was at most 1 µM throughout.

In the case of `O=C1CN(c2c(O)ccc(-c3cn(C4CC4)[nH]c3=O)c2F)S(=O)(=O)N1` [Compound 245, 5-(3-(1-cyclopropyl-3-oxo-2,3-dihydro-1H-pyrazol-4-yl)-2-fluoro-6-hydroxyphenyl)-1,2,5-thiadiazolidin-3-one 1,1-dioxide], the IC50 in experiment [1] and in experiment [2] was at most 1 µM each time.

For orientation: IC50 means the point on the concentration scale where inhibition reaches its midpoint.
